From ChEMBL document CHEMBL3400125, “Discovery of novel 2-(alkylmorpholin-4-yl)-6-(3-fluoropyridin-4-yl)-pyrimidin-4(3H)-ones as orally-active GSK-3β inhibitors for Alzheimer's disease” (Bioorg Med Chem Lett, 2015)

How the values were obtained:
[1] = Intrinsic clearance in human liver microsomes; assay type: ADME
Cytochrome P450 3A4 = Cytochrome P450 3A4 (Homo sapiens, UniProt P08684); assay: Inhibition of recombinant human CYP3A4; assay type: ADME
[2] = biological target: Glycogen synthase kinase-3 beta (Homo sapiens, UniProt P49841); assay: Inhibition of human recombinant GSK3beta assessed as inhibition of [gamma32P]ATP after 1 hr by liquid scintillation counting in presence of prephosphorylated GS1 peptide
Glycogen synthase kinase-3 beta, sequence (P49841 whole entry): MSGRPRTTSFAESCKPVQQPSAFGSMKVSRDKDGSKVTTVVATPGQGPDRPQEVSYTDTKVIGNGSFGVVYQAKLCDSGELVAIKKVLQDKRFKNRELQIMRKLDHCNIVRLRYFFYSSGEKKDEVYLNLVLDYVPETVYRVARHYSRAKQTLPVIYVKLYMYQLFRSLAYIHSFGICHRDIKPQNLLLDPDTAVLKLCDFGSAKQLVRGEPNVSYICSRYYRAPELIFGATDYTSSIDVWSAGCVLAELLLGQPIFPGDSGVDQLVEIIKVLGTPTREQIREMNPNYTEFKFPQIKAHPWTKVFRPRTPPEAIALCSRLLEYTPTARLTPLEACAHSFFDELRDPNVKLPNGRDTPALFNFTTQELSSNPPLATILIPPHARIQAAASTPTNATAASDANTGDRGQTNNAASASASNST

[3] = Permeability across human Caco2 cells; assay type: ADME, cell-based; conditions: Caco-2, read-out: permeability
Mus musculus = assay: Inhibition of GSK3beta-mediated tau phosphorylation at Ser396 residue in po dosed CD-1 mouse measured 1 hr post dose; assay type: functional; conditions: CD-1, po
Cytochrome P450 2D6 = Cytochrome P450 2D6 (Homo sapiens, UniProt P10635); assay: Inhibition of recombinant human CYP2D6; assay type: ADME
Cytochrome P450 2D6, sequence (P10635 whole entry): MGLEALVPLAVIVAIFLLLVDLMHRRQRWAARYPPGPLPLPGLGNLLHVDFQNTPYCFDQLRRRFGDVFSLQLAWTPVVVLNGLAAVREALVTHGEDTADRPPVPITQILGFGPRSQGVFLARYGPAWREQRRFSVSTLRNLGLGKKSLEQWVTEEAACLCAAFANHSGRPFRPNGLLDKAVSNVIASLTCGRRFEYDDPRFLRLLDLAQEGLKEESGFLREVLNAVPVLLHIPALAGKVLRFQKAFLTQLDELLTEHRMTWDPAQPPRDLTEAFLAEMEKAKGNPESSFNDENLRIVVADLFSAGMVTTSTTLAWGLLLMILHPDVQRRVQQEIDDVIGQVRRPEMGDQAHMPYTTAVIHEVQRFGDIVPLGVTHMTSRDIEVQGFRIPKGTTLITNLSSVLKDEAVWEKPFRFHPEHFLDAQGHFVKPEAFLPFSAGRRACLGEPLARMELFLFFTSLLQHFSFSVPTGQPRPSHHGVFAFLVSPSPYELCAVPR

Cytochrome P450 1A2 = biological target: T1, Cytochrome P450 1A2 (Homo sapiens, UniProt P05177); assay: Inhibition of recombinant human CYP1A2; assay type: ADME
T1 sequence (P05177 whole entry): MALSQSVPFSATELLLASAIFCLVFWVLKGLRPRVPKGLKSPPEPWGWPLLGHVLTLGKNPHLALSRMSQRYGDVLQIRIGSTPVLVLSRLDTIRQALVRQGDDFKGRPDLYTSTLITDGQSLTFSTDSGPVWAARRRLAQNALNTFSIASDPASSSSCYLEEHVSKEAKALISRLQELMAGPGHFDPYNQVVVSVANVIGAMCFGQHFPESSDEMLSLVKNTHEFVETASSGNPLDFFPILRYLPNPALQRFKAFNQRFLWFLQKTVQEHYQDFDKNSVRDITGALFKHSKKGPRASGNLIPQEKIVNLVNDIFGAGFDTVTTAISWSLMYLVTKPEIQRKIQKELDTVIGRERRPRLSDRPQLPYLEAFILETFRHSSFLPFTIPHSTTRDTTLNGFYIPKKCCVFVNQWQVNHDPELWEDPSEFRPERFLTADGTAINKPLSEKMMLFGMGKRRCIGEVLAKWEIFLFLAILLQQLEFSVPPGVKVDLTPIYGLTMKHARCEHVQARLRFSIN

Cytochrome P450 3A4, sequence (P08684 whole entry): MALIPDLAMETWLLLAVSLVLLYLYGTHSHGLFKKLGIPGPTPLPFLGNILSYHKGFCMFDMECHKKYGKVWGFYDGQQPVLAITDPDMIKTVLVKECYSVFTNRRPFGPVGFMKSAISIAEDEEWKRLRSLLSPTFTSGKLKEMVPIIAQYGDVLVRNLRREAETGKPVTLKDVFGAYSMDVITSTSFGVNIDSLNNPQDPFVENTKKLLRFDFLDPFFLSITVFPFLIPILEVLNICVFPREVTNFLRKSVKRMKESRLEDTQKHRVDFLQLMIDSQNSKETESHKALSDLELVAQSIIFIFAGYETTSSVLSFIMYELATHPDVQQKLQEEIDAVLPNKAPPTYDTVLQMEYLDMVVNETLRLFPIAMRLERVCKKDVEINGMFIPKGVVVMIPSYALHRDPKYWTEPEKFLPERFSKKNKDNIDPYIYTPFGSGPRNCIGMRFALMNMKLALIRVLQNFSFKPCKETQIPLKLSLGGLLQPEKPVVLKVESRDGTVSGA

Cn1c(N2CCO[C@@H](c3ccc(F)cc3)C2)nc(-c2ccncn2)cc1=O
CLint scaled [1]: 60 µL/min/mg
IC50 (Cytochrome P450 3A4): > 50 µM

Cn1c(N2CCOCC2)nc(-c2ccncc2F)cc1=O
IC50 [2]: 0.067 µM

C[C@@H]1COCCN1c1nc(-c2ccncc2F)cc(=O)n1C
Papp [3]: 54.6 ×10⁻⁶ cm/s
ED50 (Mus musculus): 6.8 mg/kg
CLint scaled [1]: 30 µL/min/mg
IC50 [2]: 0.007 µM
IC50 (Cytochrome P450 2D6): > 50 µM
IC50 (Cytochrome P450 1A2): 18.7 µM
IC50 (Cytochrome P450 3A4): > 50 µM

CC[C@@H]1COCCN1c1nc(-c2ccncc2F)cc(=O)n1C
IC50 [2]: 0.019 µM

CC(C)[C@@H]1COCCN1c1nc(-c2ccncc2F)cc(=O)n1C
IC50 [2]: 0.014 µM

C[C@H]1COCCN1c1nc(-c2ccncc2F)cc(=O)n1C
CLint scaled [1]: 20 µL/min/mg
IC50 [2]: 0.023 µM
IC50 (Cytochrome P450 2D6): > 50 µM
IC50 (Cytochrome P450 1A2): 5.7 µM
IC50 (Cytochrome P450 3A4): > 50 µM

CC[C@H]1COCCN1c1nc(-c2ccncc2F)cc(=O)n1C
IC50 [2]: 0.03 µM

C[C@@H]1CN(c2nc(-c3ccncc3F)cc(=O)n2C)[C@H](C)CO1
IC50 [2]: 0.453 µM

C[C@@H]1CO[C@@H](C)CN1c1nc(-c2ccncc2F)cc(=O)n1C
IC50 [2]: 0.041 µM

C[C@@H]1OCCN(c2nc(-c3ccncc3F)cc(=O)n2C)[C@H]1C
IC50 [2]: 0.019 µM

C[C@@H]1[C@@H](C)OCCN1c1nc(-c2ccncc2F)cc(=O)n1C
Papp [3]: 48.5 ×10⁻⁶ cm/s
IC50 [2]: 0.0049 µM
IC50 (Cytochrome P450 2D6): > 50 µM
IC50 (Cytochrome P450 1A2): 16 µM
IC50 (Cytochrome P450 3A4): > 50 µM

Cn1c(N2CCO[C@@H]3CCC[C@H]32)nc(-c2ccncc2F)cc1=O
Papp [3]: 44.5 ×10⁻⁶ cm/s
CLint scaled [1]: 40 µL/min/mg
IC50 [2]: 0.0042 µM
IC50 (Cytochrome P450 2D6): > 50 µM
IC50 (Cytochrome P450 1A2): 21 µM
IC50 (Cytochrome P450 3A4): > 50 µM

Cn1c(N2CCO[C@H]3CCC[C@@H]32)nc(-c2ccncc2F)cc1=O
IC50 [2]: 0.035 µM

Cn1c(N2CCO[C@@H]3CCCC[C@H]32)nc(-c2ccncc2F)cc1=O
Papp [3]: 41.8 ×10⁻⁶ cm/s
CLint scaled [1]: 200 µL/min/mg
IC50 [2]: 0.0037 µM
IC50 (Cytochrome P450 2D6): > 50 µM
IC50 (Cytochrome P450 1A2): 14 µM
IC50 (Cytochrome P450 3A4): > 50 µM

Cn1c(N2CCO[C@@H]3COC[C@H]32)nc(-c2ccncc2F)cc1=O
Papp [3]: 54.5 ×10⁻⁶ cm/s
CLint scaled [1]: 20 µL/min/mg
IC50 [2]: 0.0031 µM
IC50 (Cytochrome P450 2D6): > 50 µM
IC50 (Cytochrome P450 1A2): > 50 µM
IC50 (Cytochrome P450 3A4): > 50 µM

CC(C)C1CN(c2nc(-c3ccncc3F)cc(=O)n2C)CCO1 (racemic)
CLint scaled [1]: 70 µL/min/mg
IC50 [2]: 0.017 µM
IC50 (Cytochrome P450 2D6): > 50 µM
IC50 (Cytochrome P450 1A2): 3.3 µM
IC50 (Cytochrome P450 3A4): > 50 µM

CCCCC1CN(c2nc(-c3ccncc3F)cc(=O)n2C)CCO1 (racemic)
CLint scaled [1]: 210 µL/min/mg
IC50 [2]: 0.012 µM
IC50 (Cytochrome P450 2D6): 2.3 µM
IC50 (Cytochrome P450 1A2): 7.5 µM
IC50 (Cytochrome P450 3A4): > 50 µM

Cn1c(N2CCOC(C3CCC3)C2)nc(-c2ccncc2F)cc1=O (racemic)
CLint scaled [1]: 200 µL/min/mg
IC50 [2]: 0.012 µM
IC50 (Cytochrome P450 2D6): 37.7 µM
IC50 (Cytochrome P450 1A2): 1.5 µM
IC50 (Cytochrome P450 3A4): > 50 µM

CC1N(c2nc(-c3ccncc3F)cc(=O)n2C)CCOC1(C)C (racemic)
IC50 [2]: 0.0097 µM

C[C@@H]1OCCN(c2nc(-c3ccncc3F)cc(=O)n2C)[C@@H]1C (stereo in doubt; 13)
IC50 [2]: 0.016 µM

C[C@@H]1OCCN(c2nc(-c3ccncc3F)cc(=O)n2C)[C@@H]1C (stereo in doubt; 14)
IC50 [2]: 0.032 µM
